Results on 31 molecules are retold here after patent publication US11498923B2 (Merck Sharp & Dohme Corp., priority 2017, dated 2022).

Where only a bound is given, the exact number is not on record here.

The Ki is a dissociation constant, usually derived from enzyme kinetics or from competition with a known ligand.

T1 sequence (P29274 whole entry): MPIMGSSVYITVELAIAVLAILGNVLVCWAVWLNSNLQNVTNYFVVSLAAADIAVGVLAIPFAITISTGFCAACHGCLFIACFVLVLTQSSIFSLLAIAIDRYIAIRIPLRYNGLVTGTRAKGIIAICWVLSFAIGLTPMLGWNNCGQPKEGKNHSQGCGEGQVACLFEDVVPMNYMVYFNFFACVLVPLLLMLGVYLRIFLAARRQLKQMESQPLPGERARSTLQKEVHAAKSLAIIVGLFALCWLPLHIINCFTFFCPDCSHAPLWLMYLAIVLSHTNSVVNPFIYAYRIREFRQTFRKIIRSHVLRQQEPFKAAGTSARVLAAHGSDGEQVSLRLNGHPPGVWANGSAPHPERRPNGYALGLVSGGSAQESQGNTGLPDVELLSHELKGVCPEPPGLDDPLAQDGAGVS

The test concerns the target T1, human A2a receptor (Homo sapiens, UniProt P29274).
T1 construct: purchased Perkin-Elmer RBHA2AM400UA; host or cells: HEK293 cells, used as a membrane preparation
Kind of test: A2a receptor competition binding assay (Scintillation Proximity). As to conditions: membranes from HEK293 cells expressing human A2a receptor; 0.5 nM tritiated ligand; Cheng-Prusoff; read-out: A2a Ki. Put shortly: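 Ki values were obtained with the Cheng-Prusoff equation from competition curves against 0.5 nM tritiated antagonist, scintillation proximity counting after 1 h room-temperature incubation. Receptor came from HEK293 membranes pretreated with adenosine deaminase; compound final range 3000–0.15 nM, buffer Ca/Mg-free PBS with 10 mM MgCl2.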
(Scintillation proximity formats need no separation of bound from free tracer.)
For `CC(=O)Nc1ccc2c(c1)CCN(Cc1cn3c(N)nc4c(F)cccc4c3n1)C2` [Ex-128, N-(2-((5-amino-7-fluoroimidazo[1,2-c]quinazolin-2-yl)methyl)-1,2,3,4-tetrahydroisoquinolin-6-yl)acetamide], the Ki stood at 0.097 µM.

Take `Nc1nc2c(F)cccc2c2nc(CN3CCc4cc(CC(=O)Nc5ccccn5)ccc4C3)cn12` [Ex-129, 2-(2-((5-amino-7-fluoroimidazo[1,2-c]quinazolin-2-yl)methyl)-1,2,3,4-tetrahydroisoquinolin-6-yl)-N-(pyridin-2-yl)acetamide]: the inhibition constant Ki worked out at 0.051 µM.

On to `Nc1nc2c(F)cccc2c2nc(CN3CCc4cc(-c5ccc(F)c(F)c5)ccc4C3)cn12` [Ex-130, 2-((6-(3,4-difluorophenyl)-3,4-dihydroisoquinolin-2(1H)-yl)methyl)-7-fluoroimidazo[1,2-c]quinazolin-5-amine], for which the inhibitory constant (Ki) was found to be 0.046 µM.

In the case of `Nc1nc2c(F)cccc2c2nc(CN3CCc4ccc(CC(=O)Nc5ccccn5)cc4C3)cn12` [Ex-131, 2-(2-((5-amino-7-fluoroimidazo[1,2-c]quinazolin-2-yl)methyl)-1,2,3,4-tetrahydroisoquinolin-7-yl)-N-(pyridin-2-yl)acetamide], the Ki was 0.0084 µM.

With `COc1cccc2c1nc(N)n1cc(CN3CCN4CCCC[C@@H]4C3)nc21` [Ex-132, (R)-7-methoxy-2-((octahydro-2H-pyrido[1,2-a]pyrazin-2-yl)methyl)imidazo[1,2-c]quinazolin-5-amine], the Ki stood at 0.15 µM.

In the case of `COc1cccc2c1nc(N)n1cc(CN3CCc4ccc(-c5cncnc5)cc4C3)nc21` [Ex-134], the Ki amounted to 0.0079 µM.

With `COc1cccc2c1nc(N)n1cc(CN3CCc4ccc(-c5ccc(F)c(F)c5)cc4C3)nc21` [Ex-135, 2-((7-(3,4-difluorophenyl)-3,4-dihydroisoquinolin-2(1H)-yl)methyl)-7-methoxyimidazo[1,2-c]quinazolin-5-amine], the Ki is 0.0104 µM.

With `Nc1nc2c(F)cccc2c2nc(CN3CCN(C(=O)Cc4ccccn4)c4ccccc43)cn12` [Ex-136, 1-(4-((5-amino-7-fluoroimidazo[1,2-c]quinazolin-2-yl)methyl)-3,4-dihydroquinoxalin-1(2H)-yl)-2-(pyridin-2-yl)ethan-1-one], the Ki was found to be 0.012 µM.

Regarding `COc1cccc2c1nc(N)n1cc(CCN3Cc4cccnc4C3)nc21` [Ex-137, 2-(2-(5,7-dihydro-6H-pyrrolo[3,4-b]pyridin-6-yl)ethyl)-7-methoxyimidazo[1,2-c]quinazolin-5-amine], the Ki turned out to be 0.0131 µM.

Turning to `Nc1nc2c(F)cccc2c2nc(CCN3CCN(c4ccccn4)CC3)cn12` [Ex-138], the Ki is 0.028 µM.

`Nc1nc2c(Br)cccc2c2nc(CNCc3ccccc3)cn12` [Ex-140, 2-((benzylamino)methyl)-7-bromoimidazo[1,2-c]quinazolin-5-amine]: the Ki is 0.0091 µM.

`Nc1nc2c(Br)cccc2c2nc(CNCc3cccnc3)cn12` [Ex-141, 7-bromo-2-(((pyridin-3-ylmethyl)amino)methyl) imidazo[1,2-c]quinazolin-5-amine]: the Ki came to 0.0095 µM.

As for `Nc1nc2c(F)cccc2c2nc(CNCc3ccc(F)cc3)cn12` [Ex-142], the Ki was found to be 0.13 µM.

`COc1cccc2c1nc(N)n1cc(CNCc3ccccc3)nc21` [Ex-143, 2-((benzylamino)-methyl)-7-methoxy-imidazo[1,2-c]-quinazolin-5-amine]: the Ki came to 0.004 µM.

Regarding `COc1cccc2c1nc(N)n1cc(CN3CC(c4cccc(Cl)c4)C3)nc21` [Ex-144, 2-((3-(3-chlorophenyl)azetidin-1-yl)methyl)-7-methoxyimidazo[1,2-c]quinazolin-5-amine], the Ki amounted to 0.013 µM.

On to `COc1cccc2c1nc(N)n1cc(CNCc3cccnc3)nc21` [Ex-145, 7-methoxy-2-(((pyridin-3-ylmethyl)amino)methyl)imidazo [1,2-c]quinazolin-5-amine], for which the Ki was determined as 0.028 µM.

On to `Nc1nc2c(F)cccc2c2nc(COc3ccccc3)cn12` [Ex-146, 7-fluoro-2-(phenoxymethyl)imidazo[1,2-c]quinazolin-5-amine], for which the Ki was found to be 0.033 µM.

Consider `COc1cccc(OCc2cn3c(N)nc4c(F)cccc4c3n2)c1` [Ex-147], for which the Ki is 0.054 µM.

Take `CCn1cc(-c2cccc3c2nc(N)n2cc(Cc4ccccc4)nc32)cn1` [Ex-150, 2-benzyl-7-(1-ethyl-1H-pyrazol-4-yl)imidazo[1,2-c]quinazolin-5-amine]: the Ki worked out at 0.76 µM.

Regarding `CCn1cc(-c2cccc3c2nc(N)n2cc(CN(C)Cc4cccc(Cl)c4)nc32)cn1` [Ex-151, 2-(((3-chlorobenzyl)-(methyl)amino)-methyl)-7-(1-ethyl-1H-pyrazol-4-yl)imidazo[1,2-c]-quinazolin-5-amine], the Ki was more than 2.2 µM.

As for `Cc1noc(C)c1-c1cccc2c1nc(N)n1cc(Cc3ccccc3)nc21` [Ex-152], the Ki was found to be 0.035 µM.

For the molecule `Cc1noc(C)c1-c1cccc2c1nc(N)n1cc(CNCc3ccccc3)nc21` [Ex-153, 2-((benzylamino)-methyl)-7-(3,5-dimethyl-isoxazol-4-yl)-imidazo[1,2-c]-quinazolin-5-amine], the Ki is more than 2.2 µM.

With `Cc1noc(C)c1-c1cccc2c1nc(N)n1cc(Cc3ccc(F)cc3)nc21` [Ex-154, 7-(3,5-dimethylisoxazol-4-yl)-2-(4-fluorobenzyl)imidazo[1,2-c]quinazolin-5-amine], the Ki stood at 0.048 µM.

With `Cc1cc(Cc2cn3c(N)nc4c(-c5c(C)noc5C)cccc4c3n2)ccn1` [Ex-155, 7-(3,5-dimethylisoxazol-4-yl)-2-((2-methylpyridin-4-yl)methyl)imidazo[1,2-c]quinazolin-5-amine], the Ki was determined as 0.13 µM.

`Nc1nc2c(-c3cnoc3)cccc2c2nc(Cc3ccccc3)cn12` [Ex-156, 2-benzyl-7-(isoxazol-4-yl)imidazo[1,2-c]quinazolin-5-amine]: the Ki was found to be 0.028 µM.

On to `COc1cccc2c1nc(N)n1cc(C(=O)NCc3cccc4cccnc34)nc21` [Ex-157, 5-amino-7-methoxy-N-(quinolin-8-ylmethyl)imidazo[1,2-c]quinazoline-2-carboxamide], for which the Ki was determined as 0.0015 µM.

As for `Nc1nc2ccccc2c2nc(C(=O)NCc3ccc(F)cc3F)cn12` [Ex-158, 5-amino-N-(2,4-difluorobenzyl)imidazo[1,2-c]quinazoline-2-carboxamide], the inhibition constant Ki is 0.0339 µM.

Turning to `COc1cccc2c1nc(N)n1cc(C(=O)N(C)Cc3cccc4cccnc34)nc21` [Ex-159, 5-amino-7-methoxy-N-methyl-N-(quinolin-8-ylmethyl)imidazo[1,2-c]quinazoline-2-carboxamide], the Ki came out at 0.0059 µM.

Consider `CN(Cc1cccc2cccnc12)C(=O)c1cn2c(N)nc3ccccc3c2n1` [Ex-160, 5-amino-N-methyl-N-(quinolin-8-ylmethyl)imidazo[1,2-c]quinazoline-2-carboxamide], for which the Ki was found to be 0.0806 µM.

Take `Nc1nc2ccccc2c2nc(C(=O)NCc3cccc4cccnc34)cn12` [Ex-161, 5-amino-N-(quinolin-8-ylmethyl)-imidazo-[1,2-c]-quinazoline-2-carboxamide]: the Ki was 0.0394 µM.

On to `CN(Cc1cccc2cccnc12)C(=O)c1cn2c(N)nc3c(F)cccc3c2n1` [Ex-162, 5-amino-7-fluoro-N-methyl-N-(quinolin-8-ylmethyl)imidazo[1,2-c]quinazoline-2-carboxamide], for which the Ki stood at 0.0297 µM.
